Experiment: Miscibility / self-emulsification in dissolution media modelling ICH dissolution testing
Type: physicochemical
Conditions: 1 g of 100% or 75% preparation in 1 L PBS with […] curcumin, 37° C., 300 rpm 10 min, then 10 min without stirring
Procedure: To assess whether oleic acid could self-emulsify at the concentrations used in the disclosed pharmaceutical compositions, experiments was performed that were designed to model dissolution testing according to International Council for Harmonisation (ICH) guidelines. One liter of a dissolution media comprising phosphate buffered saline (PBS) and 2.5% curcumin was warmed to 37° C. and constant stirring at 300 rpm maintained. Curcumin was added as a coloring agent and was very effective at visualizing the distribution of lipids through the dissolution media. Miscibility experiments were performed using two concentrations of oleic acid nominally above the CMC concentration for this fatty acid. In one series of experiments, 1 g of 100% oleic acid was added to the dissolution media. The control compound was 1 g of 100% MAISINE™ CC. In a second series of experiments 1 g of 75% oleic acid (diluted with 250 mg of MAISINE™ CC) was added to the dissolution media. The control compound was 1 g of 75% MAISINE™ CC. The miscibility of oleic acid and MAISINE™ CC was assessed by observing the dissolution media for 10 minutes with constant stirring and then 10 minutes without stirring. Photographs were taken at time 0, 1, 2, 3, 4, 5 and 10 minutes during the stirring phase and 2, 4 and 10 minutes after stirring ceased.

SMILES	miscibility in dissolution media
CCCCCCCC/C=C\CCCCCCCC(=O)O [oleic acid]	not miscible

Experiment: not given
Conditions: cited from earlier work

SMILES	log P
CCOC(=O)C(C)(C)Oc1ccc(Cl)cc1 [clofibrate]	3.4
CC(C)(Oc1ccc(C2CCCc3ccccc32)cc1)C(=O)O (centres unmarked) [nafenopin]	4.9
Cc1ccc(C)c(OCCCC(C)(C)C(=O)O)c1 [gemfibrozil]	4.4
CC(C)(Oc1ccc(Cl)cc1)C(=O)OCCCOC(=O)c1cccnc1 [ronifibrate]	3.9
CC(C)(Oc1ccc(Cl)cc1)C(=O)OCCCOC(=O)C(C)(C)Oc1ccc(Cl)cc1 [simfibrate]	6.2
CC(C)(Oc1ccc(CCNC(=O)c2ccc(Cl)cc2)cc1)C(=O)O [bezafibrate]	4.0
CC(C)(Oc1ccc(C2CC2(Cl)Cl)cc1)C(=O)O (centres unmarked) [ciprofibrate]	3.6
CC(C)(Oc1ccc(Cl)cc1)C(=O)OCCOC(=O)c1cccnc1 [etofibrate]	3.5
CC(C)(Oc1ccc(C(=O)c2ccc(Cl)cc2)cc1)C(=O)O [fenofibric acid]	4.4
CN(C)C(=O)CCCOC(=O)C(C)(C)Oc1ccc(Cl)cc1 [clofibride]	2.8
CCC(C)(Oc1ccc(C2(c3ccc(OC(C)(CC)C(=O)O)cc3)CCCCC2)cc1)C(=O)O (centres unmarked) [clinofibrate]	7.5

Experiment: not given
Conditions: reported value; cited from earlier work

SMILES	critical micellar concentration (CMC) [µM]
CCCCCCCCCCCCCCCCCC(=O)[O-].[Na+] [sodium stearate]	71
CCCCCCCC/C=C\CCCCCCCC(=O)O [oleic acid]	2300

Reference: patent US20250195461A1, “Fibrate Compositions for Treating Inflammation and Neuroinflammation” (TRx Biosciences Limited, priority 2022, published 2025)
